Experiments:
Format in all cases: in vivo
Eimeria tenella [1] = experiment: Inhibitory effects of the derivatives on Eimeria tenella of chicken (60 ppm in feed); conditions: for anticoccidial activity in view of survival rate, bloody stool score and relative weight gain: 60 ppm, E. tenella; for responders at 60 ppm, 60 µg/mL / response vs control in vivo at 60 ppm, 60 µg/mL: Eimeria tenella, 168 h; for responders at 60 ppm, 60 µg/mL / response vs control in vivo at 60 ppm, 60 µg/mL / Score (bloody stool score): broilers, 60 ppm in feed, 250,000 E. tenella oocysts; for responders at 60 ppm, 60 µg/mL: 7 days after inoculation, read-out: Survival rate (%); for response vs control in vivo at 60 ppm, 60 µg/mL: relative to group 1 (not infected, not treated), read-out: Relative weight gain (%); for Score (bloody stool score): 5 days after inoculation
Description: (§1) One-day-old yellow-feather fast-growing broilers were raised in a coccidia-free environment, and divided into groups for trial at the age of 18 days when no coccidian oocysts were detected by microscopy in their faeceas. Weak or overweight broilers were removed, and healthy broilers were divided into 30 groups with 50 broilers in each group and weight difference between each two broilers was below 20 g. Groups 1 and 2 were respectively a control group that the broilers were neither infected nor treated, and a control group that the broilers were infected but not treated. Groups 3 to 30 were respectively administrated with different derivatives. The broilers were given ad libitum access to feed and water when the feed was added with different medicines according to Table 1 at the day the broilers were divided. 24 Hours after the trial began, 250,000 sporulated Eimeria tenella oocysts were inoculated via an oral gavage into the crop of every broiler in each group except group 1. Bloody stool score was measured 5 days after the inoculation and the trial was ended 7 days after the inoculation. Relative weight gain (%), survival rate (%) and the bloody stool score were evaluated.
(§2) Bloody stool score: 0, no bloody stool was observed; 1, bloody stool below 25%; 2, 25 to 50% of bloody stool; 3, 50 to 75% of bloody stool; and 4, bloody stool over 75%.
(§3) Relative weight gain (%): The broilers were weighed at the beginning and the end of the trial to calculate the average weight gain and relative weigh gain. Relative weight gain=(average weight gain of each group/average weight gain of group 1)×100%.
(§4) Deaths of the broilers: Necropsy was performed and the amount of dead broilers in each group was recorded to calculate the survival rate. Survival rate=(total amount of the broilers in each group−amount of deaths caused by coccidial infection)/total amount of the broilers in each group×100%.

Eimeria tenella [2] = experiment: Inhibitory effects of the derivatives of different dosages on Eimeria tenella of chicken; set-up: key to Score (bloody stool score): 0 = no bloody stool to 4 = bloody stool over 75%; conditions: broilers, E. tenella; for Score (bloody stool score): 5 days after inoculation
Method: as §2, §3, §4
as §1, with “divided into 16 groups with” for “divided into 30 groups with”, “3 to 16 were respectively” for “3 to 30 were respectively”, “with different kinds or different dosages of derivatives. The” for “with different derivatives. The”, “to Table 2 at the” for “to Table 1 at the”, “score were evaluated (according to embodiment 2).” for “score were evaluated.”

Eimeria acervulina = experiment: Inhibitory effects of the derivatives on Eimeria acervulina of chicken; conditions: for anticoccidial activity in view of survival rate, relative weight gain and feed conversion ratio: 60 ppm, E. acervulina; for responders at 60 ppm, 60 µg/mL / response vs control in vivo at 60 ppm, 60 µg/mL: Eimeria acervulina, 168 h; for responders at 60 ppm, 60 µg/mL / response vs control in vivo at 60 ppm, 60 µg/mL / Feed conversion ratio: broilers, 60 ppm in feed, 400,000 E. acervulina oocysts; for responders at 60 ppm, 60 µg/mL: 7 days after inoculation, read-out: Survival rate (%); for response vs control in vivo at 60 ppm, 60 µg/mL: feed or water, read-out: Relative weight gain (%)
Method: as §3, §4
One-day-old yellow-feather fast-growing broilers were raised in a coccidia-free environment, and divided into groups for trial at the age of 18 days when no coccidian oocysts were detected by microscopy in their faeceas. Weak or overweight broilers were removed, and healthy broilers were divided into 10 groups with 50 broilers in each group and weight difference between each two broilers was below 20 g. Groups 1 and 2 were respectively a control group that the broilers were neither infected nor treated, and a control group that the broilers were infected but not treated. Groups 3 to 10 were respectively administrated with different derivatives. The broilers were given ad libitum access to feed and water when the feed was added with different medicines according to Table 3 at the day the broilers were divided. 24 Hours after the trial began, 400,000 sporulated Eimeria acervulina oocysts were inoculated via an oral gavage into the crop of every broiler in each group except group 1. The trial was ended 7 days after the inoculation. Relative weight gain (%), survival rate (%) and feed conversion ratio were evaluated.

Eimeria necatrix = experiment: Inhibitory effects of the derivatives on Eimeria necatrix of chicken; conditions: for anticoccidial activity in view of survival rate, bloody stool score and relative weight gain: 60 ppm, E. necatrix; for responders at 60 ppm, 60 µg/mL / response vs control in vivo at 60 ppm, 60 µg/mL: Eimeria necatrix, 168 h; for responders at 60 ppm, 60 µg/mL: read-out: Survival rate (%); for response vs control in vivo at 60 ppm, 60 µg/mL: feed or water, read-out: Relative weight gain (%); for response vs control in vivo at 60 ppm, 60 µg/mL / Score (bloody stool score): broilers, 60 ppm in feed, 100,000 E. necatrix oocysts; for Score (bloody stool score): 5 days after inoculation
Method: as §2, §3, §4
as §1, with “into 10” for “into 30”, “to 10” for “to 30”, “Table 4” for “Table 1”, “began, 100,000” for “began, 250,000”, “Eimeria necatrix” for “Eimeria tenella”, “were evaluated (according to embodiment 2).” for “were evaluated.”

Row | SMILES | anticoccidial activity in view of survival rate, bloody stool score and relative weight gain (Eimeria tenella [1]) | responders at 60 ppm, 60 µg/mL (Eimeria tenella [1]) [%] | response vs control in vivo at 60 ppm, 60 µg/mL (Eimeria tenella [1]) [%] | Score (bloody stool score) (Eimeria tenella [1]) | Relative weight gain (%) (Eimeria tenella [2]; 5 ppm in feed) | Survival rate (%) (Eimeria tenella [2]; 5 ppm in feed) | Score (bloody stool score) (Eimeria tenella [2]; 5 ppm in feed) | Relative weight gain (%) (Eimeria tenella [2]; 10 ppm in feed) | Survival rate (%) (Eimeria tenella [2]; 10 ppm in feed) | Score (bloody stool score) (Eimeria tenella [2]; 10 ppm in feed) | Relative weight gain (%) (Eimeria tenella [2]; 20 ppm in feed) | Survival rate (%) (Eimeria tenella [2]; 20 ppm in feed) | anticoccidial activity in view of survival rate, relative weight gain and feed conversion ratio (Eimeria acervulina) | responders at 60 ppm, 60 µg/mL (Eimeria acervulina) [%] | response vs control in vivo at 60 ppm, 60 µg/mL (Eimeria acervulina) [%] | Feed conversion ratio (Eimeria acervulina) | anticoccidial activity in view of survival rate, bloody stool score and relative weight gain (Eimeria necatrix) | responders at 60 ppm, 60 µg/mL (Eimeria necatrix) [%] | response vs control in vivo at 60 ppm, 60 µg/mL (Eimeria necatrix) [%] | Score (bloody stool score) (Eimeria necatrix) | further results
1 | NC(=O)c1ncn(Cc2c(F)cccc2Cl)c1C(N)=O [IST15031, 1-(2-chloro-6-fluorobenzyl)-1H-imidazole-4,5-dicarboxamide] | highest anticoccidial activities | 100 | 95.8 | 1 (bloody stool below 25%) | 67.8 | 76 | 4 (bloody stool over 75%) | 72.3 | 88 | 4 (bloody stool over 75%) | 79.8 | 100 | highest anticoccidial activities | 100 | 94.8 | 2.179 | highest anticoccidial activities | 100 | 92.5 | 1 (bloody stool below 25%) | Score (bloody stool score) (Eimeria tenella [2]; 20 ppm in feed): 2 (25 to 50% of bloody stool); Relative weight gain (%) (Eimeria tenella [2]; 50 ppm in feed): 90.5%; Survival rate (%) (Eimeria tenella [2]; 50 ppm in feed): 100%; Score (bloody stool score) (Eimeria tenella [2]; 50 ppm in feed): 1 (bloody stool below 25%); Relative weight gain (%) (Eimeria tenella [2]; 100 ppm in feed): 98.9%; Survival rate (%) (Eimeria tenella [2]; 100 ppm in feed): 100%; Score (bloody stool score) (Eimeria tenella [2]; 100 ppm in feed): 0; Relative weight gain (%) (Eimeria tenella [2]; 200 ppm in feed): 102.5%; Survival rate (%) (Eimeria tenella [2]; 200 ppm in feed): 100%; Score (bloody stool score) (Eimeria tenella [2]; 200 ppm in feed): 0; Relative weight gain (%) (Eimeria tenella [2]; 500 ppm in feed): 100.4%; Survival rate (%) (Eimeria tenella [2]; 500 ppm in feed): 100%; Score (bloody stool score) (Eimeria tenella [2]; 500 ppm in feed): 0
2 | CCCn1cnc(C(N)=O)c1C(N)=O [IST15038, 1-propyl-1H-imidazole-4,5-dicarboxamide] | – | 100 | 82.1 | 3 (50 to 75% of bloody stool) | – | – | – | – | – | – | – | – | – | 100 | 73.8 | 2.135 | – | 100 | 79.5 | 2 (25 to 50% of bloody stool) | –
3 | NC(=O)c1ncn(Cc2ccccc2F)c1C(N)=O [IST15043, 1-(2-fluorobenzyl)-1H-imidazole-4,5-dicarboxamide] | highest anticoccidial activities | 100 | 98.7 | 0 | – | – | – | – | – | – | – | – | highest anticoccidial activities | 100 | 99.4 | 2.139 | highest anticoccidial activities | 100 | 102 | 0 | –
4 | NC(=O)c1ncn(Cc2ccc([N+](=O)[O-])cc2)c1C(N)=O [IST15045, 1-(4-nitrobenzyl)-1H-imidazole-4,5-dicarboxamide] | highest anticoccidial activities | 100 | 104 | 0 | – | – | – | – | – | – | – | – | highest anticoccidial activities | 100 | 98.7 | 2.158 | highest anticoccidial activities | 100 | 102 | 0 | –
5 | NC(=O)c1ncn(Cc2ccc(C(F)(F)F)cc2)c1C(N)=O [IST15051, 1-(4-(trifluromethyl)benzyl)-1H-imidazole-4,5-dicarboxamide] | highest anticoccidial activities | 100 | 101 | 0 | 80.4 | 96 | 4 (bloody stool over 75%) | 88.6 | 100 | 2 (25 to 50% of bloody stool) | 95.9 | 100 | highest anticoccidial activities | 100 | 102 | 2.109 | highest anticoccidial activities | 100 | 99.5 | 0 | Score (bloody stool score) (Eimeria tenella [2]; 20 ppm in feed): 0; Relative weight gain (%) (Eimeria tenella [2]; 50 ppm in feed): 98.7%; Survival rate (%) (Eimeria tenella [2]; 50 ppm in feed): 100%; Score (bloody stool score) (Eimeria tenella [2]; 50 ppm in feed): 0; Relative weight gain (%) (Eimeria tenella [2]; 100 ppm in feed): 101.2%; Survival rate (%) (Eimeria tenella [2]; 100 ppm in feed): 100%; Score (bloody stool score) (Eimeria tenella [2]; 100 ppm in feed): 0; Relative weight gain (%) (Eimeria tenella [2]; 200 ppm in feed): 99.4%; Survival rate (%) (Eimeria tenella [2]; 200 ppm in feed): 100%; Score (bloody stool score) (Eimeria tenella [2]; 200 ppm in feed): 0; Relative weight gain (%) (Eimeria tenella [2]; 500 ppm in feed): 103.6%; Survival rate (%) (Eimeria tenella [2]; 500 ppm in feed): 100%; Score (bloody stool score) (Eimeria tenella [2]; 500 ppm in feed): 0

Source: patent publication US10435376B2, “Derivatives of 1H-imidazole-4,5-dicarboxamide and use thereof in preparation of anticoccidial drugs” (GUANGZHOU INSIGHTER BIOTECHNOLOGY CO., LTD., priority 2015, dated 2019)
